Experiment: xn = mol fraction of the nth substance listed

CCNc1ccccc1 + COc1ccccc1
viscosity [mPa·s], 101 kPa
Settings	293.15 K	298.15 K	303.15 K	308.15 K	313.15 K	318.15 K	323.15 K
x1 = 0.0504	1.109	1.026	0.948	0.881	0.807	0.764	0.709
x1 = 0.1074	1.15	1.059	0.977	0.907	0.83	0.784	0.727
x1 = 0.1541	1.193	1.095	1.009	0.935	0.855	0.805	0.746
x1 = 0.2094	1.234	1.13	1.039	0.961	0.878	0.825	0.763
x1 = 0.2506	1.275	1.164	1.067	0.985	0.9	0.844	0.78
x1 = 0.3006	1.318	1.2	1.098	1.012	0.924	0.864	0.798
x1 = 0.3502	1.364	1.237	1.13	1.04	0.949	0.885	0.816
x1 = 0.4029	1.416	1.279	1.166	1.071	0.976	0.908	0.837
x1 = 0.4504	1.466	1.32	1.201	1.1	1.002	0.931	0.857
x1 = 0.499	1.519	1.363	1.24	1.133	1.031	0.955	0.878
x1 = 0.5504	1.58	1.412	1.281	1.169	1.063	0.981	0.902
x1 = 0.5911	1.64	1.461	1.322	1.204	1.094	1.007	0.924
x1 = 0.6505	1.711	1.517	1.371	1.245	1.131	1.038	0.951
x1 = 0.7027	1.783	1.578	1.421	1.288	1.167	1.069	0.978
x1 = 0.7493	1.853	1.635	1.47	1.331	1.203	1.098	1.004
x1 = 0.7972	1.936	1.699	1.523	1.375	1.242	1.131	1.032
x1 = 0.8509	2.024	1.766	1.578	1.421	1.283	1.164	1.06
x1 = 0.8913	2.103	1.831	1.632	1.466	1.322	1.196	1.087
x1 = 0.9501	2.191	1.9	1.688	1.514	1.363	1.23	1.116

CC(=O)O + O
Settings	viscosity [mPa·s]
293.15 K, 101 kPa, x1 = 0.0322	1.205
293.15 K, 101 kPa, x1 = 0.0731	1.433
293.15 K, 101 kPa, x1 = 0.1134	1.649
293.15 K, 101 kPa, x1 = 0.1667	1.892
293.15 K, 101 kPa, x1 = 0.2308	2.14
293.15 K, 101 kPa, x1 = 0.3102	2.385
293.15 K, 101 kPa, x1 = 0.4112	2.607
293.15 K, 101 kPa, x1 = 0.7286	2.39
293.15 K, 101.33 kPa, x1 = 0.03226	1.237
293.15 K, 101.33 kPa, x1 = 0.1139	1.696
293.15 K, 101.33 kPa, x1 = 0.2308	2.188
293.15 K, 101.33 kPa, x1 = 0.4118	2.686
293.15 K, 101.33 kPa, x1 = 0.5011	2.784
293.15 K, 101.33 kPa, x1 = 0.5454	2.781
293.15 K, 101.33 kPa, x2 = 0.0132	1.455
295.3 K, 101.33 kPa, x1 = 0.0321	1.135
298.15 K, 101 kPa, x1 = 0.0322	1.073
298.15 K, 101 kPa, x1 = 0.0731	1.27
298.15 K, 101 kPa, x1 = 0.1134	1.452
298.15 K, 101 kPa, x1 = 0.1667	1.644
298.15 K, 101 kPa, x1 = 0.2308	1.866
298.15 K, 101 kPa, x1 = 0.3102	2.086
298.15 K, 101 kPa, x1 = 0.4112	2.272
298.15 K, 101 kPa, x1 = 0.5449	2.353
298.15 K, 101 kPa, x1 = 0.7286	2.105
298.15 K, 101.33 kPa, x1 = 0.016	0.988
298.15 K, 101.33 kPa, x1 = 0.034	1.08
298.15 K, 101.33 kPa, x1 = 0.0684	1.232
298.15 K, 101.33 kPa, x1 = 0.07	1.254
298.15 K, 101.33 kPa, x1 = 0.1242	1.437
298.15 K, 101.33 kPa, x1 = 0.1648	1.633
298.15 K, 101.33 kPa, x1 = 0.2268	1.824
298.15 K, 101.33 kPa, x1 = 0.2289	1.867
298.15 K, 101.33 kPa, x1 = 0.2844	1.986
298.15 K, 101.33 kPa, x1 = 0.3218	2.091
298.15 K, 101.33 kPa, x1 = 0.3273	2.103
298.15 K, 101.33 kPa, x1 = 0.4187	2.248
298.15 K, 101.33 kPa, x1 = 0.436	2.333
298.15 K, 101.33 kPa, x1 = 0.4699	2.305
298.15 K, 101.33 kPa, x1 = 0.5177	2.374
298.15 K, 101.33 kPa, x1 = 0.5367	2.254
298.15 K, 101.33 kPa, x1 = 0.737	2.06
298.15 K, 101.33 kPa, x1 = 0.8576	1.689
298.15 K, 101.33 kPa, x1 = 0.9548	1.223
300.27 K, 101.33 kPa, x1 = 0.03428	1.014
303.15 K, 101 kPa, x1 = 0.0322	0.953
303.15 K, 101 kPa, x1 = 0.0731	1.12
303.15 K, 101 kPa, x1 = 0.1134	1.276
303.15 K, 101 kPa, x1 = 0.1667	1.452
303.15 K, 101 kPa, x1 = 0.2308	1.634
303.15 K, 101 kPa, x1 = 0.3102	1.816
303.15 K, 101 kPa, x1 = 0.4112	1.977
303.15 K, 101 kPa, x1 = 0.7286	1.847
303.55 K, 101.33 kPa, x1 = 0.0321	0.956
303.65 K, 101.33 kPa, x1 = 0.03428	0.939
308.15 K, 101 kPa, x1 = 0.0322	0.855
308.15 K, 101 kPa, x1 = 0.0731	1.003
308.15 K, 101 kPa, x1 = 0.1134	1.135
308.15 K, 101 kPa, x1 = 0.1667	1.289
308.15 K, 101 kPa, x1 = 0.2308	1.447
308.15 K, 101 kPa, x1 = 0.3102	1.612
308.15 K, 101 kPa, x1 = 0.4112	1.76
308.15 K, 101 kPa, x1 = 0.5449	1.813
308.15 K, 101 kPa, x1 = 0.7286	1.653
313.15 K, 100 kPa, x1 = 0.1001	0.997
313.15 K, 100 kPa, x1 = 0.2001	1.278
313.15 K, 100 kPa, x1 = 0.2998	1.467
313.15 K, 100 kPa, x1 = 0.3999	1.564
313.15 K, 100 kPa, x1 = 0.4996	1.585
313.15 K, 100 kPa, x1 = 0.5999	1.548
313.15 K, 100 kPa, x1 = 0.7002	1.461
313.15 K, 100 kPa, x1 = 0.7992	1.328
313.15 K, 100 kPa, x1 = 0.9001	1.14
313.15 K, 101 kPa, x1 = 0.0322	0.775
313.15 K, 101 kPa, x1 = 0.0731	0.903
313.15 K, 101 kPa, x1 = 0.1134	1.014
313.15 K, 101 kPa, x1 = 0.1667	1.158
313.15 K, 101 kPa, x1 = 0.2308	1.297
313.15 K, 101 kPa, x1 = 0.3102	1.426
313.15 K, 101 kPa, x1 = 0.4112	1.549
313.15 K, 101 kPa, x1 = 0.5449	1.614
313.15 K, 101 kPa, x1 = 0.7286	1.48
318.15 K, 101 kPa, x1 = 0.0322	0.709
318.15 K, 101 kPa, x1 = 0.0731	0.819
318.15 K, 101 kPa, x1 = 0.1134	0.922
318.15 K, 101 kPa, x1 = 0.1667	1.041
318.15 K, 101 kPa, x1 = 0.2308	1.165
318.15 K, 101 kPa, x1 = 0.3102	1.286
318.15 K, 101 kPa, x1 = 0.4112	1.397
318.15 K, 101 kPa, x1 = 0.5449	1.453
318.15 K, 101 kPa, x1 = 0.7286	1.34
323.15 K, 101 kPa, x1 = 0.0322	0.644
323.15 K, 101 kPa, x1 = 0.0731	0.742
323.15 K, 101 kPa, x1 = 0.1134	0.842
323.15 K, 101 kPa, x1 = 0.1667	0.943
323.15 K, 101 kPa, x1 = 0.2308	1.052
323.15 K, 101 kPa, x1 = 0.3102	1.166
323.15 K, 101 kPa, x1 = 0.4112	1.265
323.15 K, 101 kPa, x1 = 0.5449	1.316
323.15 K, 101 kPa, x1 = 0.7286	1.235

Source: the CheMixHub viscosity set
